Reference: article PMC11747885, “Potent inhibitors of the human RNA ligase Rlig1 highlights its role in RNA integrity maintenance under oxidative cellular stress” (Chemical Science, 2025)
Where two headings read alike, the source gives them in different places.

Experiments:
Rlig1-AMP [1] = target: T1, Rlig1-AMP (Homo sapiens, UniProt Q8N999); test: Radioactive RNA ligation assay (hit validation, 10 µM test and IC50 determination); format: biochemical; conditions: for inhibition in radioactive ligation assay (hit validation): 10 µM compound, 37 °C, 20 min
T1 construct: made in house; host or cells: E. coli BL21 (DE3), pET15b-Rlig1

Rlig1-AMP [2] = target: T1, Rlig1-AMP; test: FRET-based high-throughput screening of inhibitors for Rlig1-AMP; format: biochemical
[3] = sheet HTS hits, MedChemExpress library
[4] = sheet HTS hits, difference of raw data w/o and w enzyme
[5] = HTS hits, difference of raw data without and with enzyme
[6] = HTS hits, MedChemExpress library
[7] = HTS hits, difference of raw data w/o and w enzyme
[8] = HTS hits, normalized value (npi)
[9] = HTS hits, normalised value of 1-D Distance

T1 sequence (Q8N999 whole entry): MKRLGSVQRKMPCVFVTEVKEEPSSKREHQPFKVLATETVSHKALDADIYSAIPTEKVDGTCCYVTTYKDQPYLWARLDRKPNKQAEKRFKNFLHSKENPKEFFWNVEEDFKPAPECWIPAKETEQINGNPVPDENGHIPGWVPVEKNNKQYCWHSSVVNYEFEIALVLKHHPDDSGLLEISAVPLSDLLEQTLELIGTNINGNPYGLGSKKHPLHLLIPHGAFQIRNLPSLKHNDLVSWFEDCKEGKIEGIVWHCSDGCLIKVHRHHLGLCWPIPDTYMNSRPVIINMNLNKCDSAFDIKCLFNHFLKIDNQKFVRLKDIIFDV

Compound: Cc1cc(Nc2ccc(NC(=O)c3ccc(Nc4cccc5ccccc45)cc3)cc2)nc(N)n1 [Compound 44]
- inhibition of Rlig1-AMP ligation (urea-PAGE) (Rlig1-AMP [1]; 10 μM compound, 500 nM Rlig1-AMP, 20 min 37 °C): inactive

Compound: Cc1cc(-c2cc(O)ccc2Cl)cc2nnc(Nc3ccc(OCCN4CCCC4)cc3)nc12.Cl [Compound 6, reference compound]
- inhibition in radioactive ligation assay (hit validation) (Rlig1-AMP [1]): above 70%

Compound: Cn1nc(-c2ccc(C(F)(F)F)cc2)nc2c(=O)n(C)c(=O)nc1-2 [Compound 11, reference compound]
- IC50 (in words) (Rlig1-AMP [1]; concentration-dependent radioactive ligation assay): nanomolar range

Compound: COc1cccc2c1C(=N)c1c(O)c3c(c(O)c1C2=O)C[C@@](O)(C(C)=O)C[C@@H]3O[C@H]1C[C@H](N)[C@H](O)[C@H](C)O1.Cl [5-Iminodaunorubicin (hydrochloride)]
- 1-D Distance.npi (Rlig1-AMP [2]; [3]): 90.1534
- 1-D Distance (Rlig1-AMP [2]; [4]): 802
- Raw data [w Enyzm] (Rlig1-AMP [2]; sheet HTS hits, with enzyme): 2925
- Raw data [w/o Enzym] (Rlig1-AMP [2]; sheet HTS hits, without enzyme): 3727

Compound: Plicamycin
- 1-D Distance (Rlig1-AMP [2]; [5]): 1957
- Raw data [w Enyzm] (Rlig1-AMP [2]; HTS hits, with enzyme): 9254
- Raw data [w/o Enzym] (Rlig1-AMP [2]; HTS hits, without enzyme): 11211

Compound: LL-37, human (TFA)
- 1-D Distance.npi (Rlig1-AMP [2]; [6]): 104.017
- 1-D Distance (Rlig1-AMP [2]; [5]): 99
- Raw data [w Enyzm] (Rlig1-AMP [2]; HTS hits, with enzyme): 6495
- Raw data [w/o Enzym] (Rlig1-AMP [2]; HTS hits, without enzyme): 6396

Compound: Cl.NC(CO)(CO)CCc1ccc(Sc2cccc(OCc3ccccc3)c2)cc1Cl [Mocravimod (hydrochloride)]
- 1-D Distance.npi (Rlig1-AMP [2]; [6]): 104.362
- 1-D Distance (Rlig1-AMP [2]; [5]): 176
- Raw data [w Enyzm] (Rlig1-AMP [2]; HTS hits, with enzyme): 8286
- Raw data [w/o Enzym] (Rlig1-AMP [2]; HTS hits, without enzyme): 8462

Compound: COc1cccc2c1C(=O)c1c(O)c3c(c(O)c1C2=O)C[C@@](O)(C(C)=O)C[C@@H]3O[C@H]1C[C@H](NC(=O)OCc2ccc(O[C@@H]3O[C@H](CO)[C@H](O)[C@H](O)[C@H]3O)c([N+](=O)[O-])c2)[C@H](O)[C@H](C)O1 [Daun02]
- 1-D Distance (Rlig1-AMP [2]; [7]): 1434
- 1-D Distance.npi (Rlig1-AMP [2]; [8]): 83.3585
- Raw data [w Enyzm] (Rlig1-AMP [2]; HTS hits, with enzyme): 2111
- Raw data [w/o Enzym] (Rlig1-AMP [2]; HTS hits, without enzyme): 3545

Compound: C=C1C(=O)O[C@@H]2[C@H]3C(C)=CC[C@@]34O[C@@]4(C)CC[C@@H]12 [Arglabin]
- 1-D Distance (Rlig1-AMP [2]; [7]): 1673
- Raw data [w Enyzm] (Rlig1-AMP [2]; HTS hits, with enzyme): 8885
- Raw data [w/o Enzym] (Rlig1-AMP [2]; HTS hits, without enzyme): 10558

Compound: O=C(NCCCCCCCCCC[P+](c1ccccc1)(c1ccccc1)c1ccccc1)c1nn(Cc2ccc(Cl)cc2Cl)c2ccccc12.[Br-] [Mito-LND]
- 1-D Distance.npi (Rlig1-AMP [2]; [6]): 74.0964
- 1-D Distance (Rlig1-AMP [2]; [5]): 1734
- Raw data [w Enyzm] (Rlig1-AMP [2]; HTS hits, with enzyme): 5993
- Raw data [w/o Enzym] (Rlig1-AMP [2]; HTS hits, without enzyme): 4259

Compound: CN(C)CCSSCCNC(=O)C1CCN(C(=O)CSc2ccc(Cl)cc2)CC1.O=C(O)C(F)(F)F [6H05 (TFA)]
- 1-D Distance (Rlig1-AMP [2]; [7]): 1774
- 1-D Distance.npi (Rlig1-AMP [2]; [9]): 75.4127
- Raw data [w Enyzm] (Rlig1-AMP [2]; HTS hits, with enzyme): 8996
- Raw data [w/o Enzym] (Rlig1-AMP [2]; HTS hits, without enzyme): 10770

Compound: N#Cc1cc(NS(=O)(=O)c2ccc(N)cc2)ccc1Oc1ccc(Cl)c(C(F)(F)F)c1 [Lp-PLA2-IN-3]
- 1-D Distance.npi (Rlig1-AMP [2]; [6]): 92.9896
- 1-D Distance (Rlig1-AMP [2]; [5]): 555
- Raw data [w Enyzm] (Rlig1-AMP [2]; HTS hits, with enzyme): 9448

Compound: CCCCCCCCN=c1ccn(CCCCCCCCCCn2ccc(=NCCCCCCCC)cc2)cc1.Cl.Cl [Octenidine (dihydrochloride)]
- 1-D Distance (Rlig1-AMP [2]; [7]): 1500
- 1-D Distance.npi (Rlig1-AMP [2]; [9]): 76.2265
- Raw data [w Enyzm] (Rlig1-AMP [2]; HTS hits, with enzyme): 8818
- Raw data [w/o Enzym] (Rlig1-AMP [2]; HTS hits, without enzyme): 7318

Compound: COS(=O)(=O)[O-].C[n+]1c2ccccc2nc2ccccc21 [Phenazine (methylsulfate)]
- 1-D Distance.npi (Rlig1-AMP [2]; [6]): 78.9166
- 1-D Distance (Rlig1-AMP [2]; [5]): 1419
- Raw data [w Enyzm] (Rlig1-AMP [2]; HTS hits, with enzyme): 2478
- Raw data [w/o Enzym] (Rlig1-AMP [2]; HTS hits, without enzyme): 3897

Compound: CN(C)C/C=C/C(=O)Nc1ccc(C(=O)Nc2cccc(Nc3ncc(Cl)c(-c4c[nH]c5ccccc45)n3)c2)cc1.Cl [Compound 2, THZ1 (Hydrochloride), reference compound]
- inhibition in radioactive ligation assay (hit validation) (Rlig1-AMP [1]): above 70%

Compound: CC(C)c1nc2c([nH]1)-c1ccccc1C(=O)C2=O [KL1333]
- 1-D Distance (Rlig1-AMP [2]; [7]): 578
- 1-D Distance.npi (Rlig1-AMP [2]; [8]): 96.7085
- Raw data [w Enyzm] (Rlig1-AMP [2]; HTS hits, with enzyme): 12041
- Raw data [w/o Enzym] (Rlig1-AMP [2]; HTS hits, without enzyme): 12619

Compound: CC(C)(C)OC(=O)CCOCCBr [Bromo-PEG1-C2-Boc]
- 1-D Distance.npi (Rlig1-AMP [2]; [3]): 72.9978
- 1-D Distance (Rlig1-AMP [2]; [4]): 1882
- Raw data [w Enyzm] (Rlig1-AMP [2]; sheet HTS hits, with enzyme): 9154
- Raw data [w/o Enzym] (Rlig1-AMP [2]; sheet HTS hits, without enzyme): 11036

Compound: N[C@@H](CS)C(=O)O [L-Cysteine]
- 1-D Distance (Rlig1-AMP [2]; [7]): 1124
- Raw data [w Enyzm] (Rlig1-AMP [2]; HTS hits, with enzyme): 9158
- Raw data [w/o Enzym] (Rlig1-AMP [2]; HTS hits, without enzyme): 10282

Compound: COc1cc(/C=C/C(=O)NCC(O)c2ccc(O)cc2)ccc1O (centres unmarked) [N-Feruloyloctopamine]
- 1-D Distance.npi (Rlig1-AMP [2]; [3]): 70.0499
- 1-D Distance (Rlig1-AMP [2]; [4]): 1918
- Raw data [w Enyzm] (Rlig1-AMP [2]; sheet HTS hits, with enzyme): 9094
- Raw data [w/o Enzym] (Rlig1-AMP [2]; sheet HTS hits, without enzyme): 11012

Compound: Cc1cccc2c3c(ccc12)C(=O)C1=C(OCC1C)C3=O (centres unmarked) [Dihydroisotanshinone I]
- 1-D Distance.npi (Rlig1-AMP [2]; [3]): 72.3395
- 1-D Distance (Rlig1-AMP [2]; [4]): 1938
- Raw data [w Enyzm] (Rlig1-AMP [2]; sheet HTS hits, with enzyme): 11164
- Raw data [w/o Enzym] (Rlig1-AMP [2]; sheet HTS hits, without enzyme): 13102

Compound: CC(C)c1cccc(C(C)C)c1O [Propofol]
- 1-D Distance (Rlig1-AMP [2]): 1959
- Raw data [w Enyzm] (Rlig1-AMP [2]): 8754
- Raw data [w/o Enzym] (Rlig1-AMP [2]): 10713

Compound: CCCCCOc1ccccc1/C(=C\SC)n1ccnc1.Cl [Neticonazole (hydrochloride)]
- 1-D Distance.npi (Rlig1-AMP [2]; [6]): 74.1423
- 1-D Distance (Rlig1-AMP [2]; [5]): 1715
- Raw data [w Enyzm] (Rlig1-AMP [2]; HTS hits, with enzyme): 9255
- Raw data [w/o Enzym] (Rlig1-AMP [2]; HTS hits, without enzyme): 10970

Compound: CC(=O)Nc1ccc(S(=O)(=O)[O-])c2cc(S(=O)(=O)[O-])c(N=Nc3ccc(N=Nc4ccc(S(=O)(=O)[O-])cc4)c4ccc(S(=O)(=O)[O-])cc34)c(O)c12.[Na+].[Na+].[Na+].[Na+] [Brilliant Black BN]
- 1-D Distance.npi (Rlig1-AMP [2]; [6]): 98.2105
- 1-D Distance (Rlig1-AMP [2]; [5]): 272
- Raw data [w Enyzm] (Rlig1-AMP [2]; HTS hits, with enzyme): 1620
- Raw data [w/o Enzym] (Rlig1-AMP [2]; HTS hits, without enzyme): 1348

Compound: Cl[TeH]1(Cl)(Cl)OCCO1 [Ossirene]
- 1-D Distance (Rlig1-AMP [2]; [7]): 1663
- Raw data [w Enyzm] (Rlig1-AMP [2]; HTS hits, with enzyme): 4805
- Raw data [w/o Enzym] (Rlig1-AMP [2]; HTS hits, without enzyme): 6468

Compound: CN(C)CCOC(=O)COc1ccc(Cl)cc1.Cl [Meclofenoxate (hydrochloride)]
- 1-D Distance.npi (Rlig1-AMP [2]; [6]): 72.0073
- 1-D Distance (Rlig1-AMP [2]; [5]): 1832
- Raw data [w Enyzm] (Rlig1-AMP [2]; HTS hits, with enzyme): 9480
- Raw data [w/o Enzym] (Rlig1-AMP [2]; HTS hits, without enzyme): 11312

Compound: COS(=O)(=O)[O-].COc1cccc2c1nc1ccccc1[n+]2C [Methoxy-PMS]
- 1-D Distance (Rlig1-AMP [2]; [7]): 2097
- 1-D Distance.npi (Rlig1-AMP [2]; [8]): 71.83
- Raw data [w Enyzm] (Rlig1-AMP [2]; HTS hits, with enzyme): 4514
- Raw data [w/o Enzym] (Rlig1-AMP [2]; HTS hits, without enzyme): 6611

Compound: C/C1=C2N=C(/C=C3N=C(/C(C)=C4\[N-]C(C(CC(N)=O)C4(C)CCC(=O)NCC(C)OP(=O)([O-])OC4C(CO)OC(n5cnc6cc(C)c(C)cc65)C4O)C4(C)N=C1C(CCC(N)=O)C4(C)CC(N)=O)C(CCC(N)=O)C\3(C)C)C(CCC(N)=O)C/2(C)CC(N)=O.Cl.[Co+3].[OH-] (centres unmarked) [Hydroxocobalamin (monohydrochloride)]
- 1-D Distance.npi (Rlig1-AMP [2]; [3]): 101.9
- 1-D Distance (Rlig1-AMP [2]; [4]): 179
- Raw data [w Enyzm] (Rlig1-AMP [2]; sheet HTS hits, with enzyme): 5221
- Raw data [w/o Enzym] (Rlig1-AMP [2]; sheet HTS hits, without enzyme): 5042

Compound: CN(C)Cc1ccc(-c2cnn3c(-c4cccc(NC(=O)c5cccc(C(F)(F)F)c5)c4)ccnc23)cc1 [Compound 17, reference compound]
- inhibition in radioactive ligation assay (hit validation) (Rlig1-AMP [1]): above 70%

Compound: CN1CCC=C(C(=O)O)C1 [Arecaidine]
- 1-D Distance (Rlig1-AMP [2]; [7]): 1949
- 1-D Distance.npi (Rlig1-AMP [2]; [9]): 71.9903
- Raw data [w Enyzm] (Rlig1-AMP [2]; HTS hits, with enzyme): 8786
- Raw data [w/o Enzym] (Rlig1-AMP [2]; HTS hits, without enzyme): 10735

Compound: CN(C)c1ccc2nc3ccc(=[N+](C)C)cc-3sc2c1.O.O.O.[Cl-] [Methylene blue (trihydrate)]
- 1-D Distance.npi (Rlig1-AMP [2]; [6]): 83.8926
- 1-D Distance (Rlig1-AMP [2]; [5]): 1051
- Raw data [w Enyzm] (Rlig1-AMP [2]; HTS hits, with enzyme): 6070

Compound: CC(C)=CC[C@H](O)C1=CC(=O)c2c(O)ccc(O)c2C1=O [(-)-Alkannin]
- 1-D Distance.npi (Rlig1-AMP [2]; [6]): 70.9637
- 1-D Distance (Rlig1-AMP [2]; [5]): 1812
- Raw data [w Enyzm] (Rlig1-AMP [2]; HTS hits, with enzyme): 3885
